Among the test systems are 786-0; ACHN; BT-549; CCRF-CEM; DU-145; HCT-15; HOP-62; Hs-578T; KM12; M14; MCF7; MOLT-4; NCI-H23; NCI-H460; NCI/ADR-RES; SF-295; SK-MEL-2; SK-MEL-5; SN12C; T47D.
What all share (assay): DTP human tumour cell line panel, 48 h

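These data come from cells grown in 96-well plates and exposed to compound for 48 hours at five concentrations. GI50 marks 50% less growth.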 Calls of active or inactive are those of the source. No stated cut-off is given here; in the data, active = GI50 up to about 1.1 µM and inactive = higher. Some results are limits rather than exact numbers.

Broadly, the GI50 is the concentration giving 50% growth inhibition. Consider `Cc1ccc([N+](=O)[O-])c2c(NCCNC(=O)c3cc(C(=O)NCCNc4ccnc5c(C)ccc([N+](=O)[O-])c45)n(C)n3)ccnc12`, for which the GI50 with 786-0 was > 56 µM (inactive); with ACHN, > 100 µM (inactive); with BT-549, > 100 µM (inactive); in the assay on CCRF-CEM it was 36 µM (inactive); in the assay on DU-145 it was > 100 µM (inactive); in the assay on HCT-15 it was above 76.9 µM. The GI50 was > 60 µM (inactive) in the assay with HOP-62; > 87.3 µM (inactive) in the assay with Hs-578T; > 100 µM (inactive) with KM12; > 72.4 µM (inactive) in the assay on M14; > 21.5 µM (inactive) with MCF7; 31.7 µM (inactive) with MOLT-4. For the same compound, the GI50 was > 84.9 µM (inactive) in the assay on NCI-H23; > 100 µM (inactive) in the assay with NCI-H460; > 100 µM (inactive) in the assay with NCI/ADR-RES; > 79.6 µM (inactive) in the assay on SF-295; > 100 µM (inactive) with SK-MEL-2; 32.1 µM (inactive) in the assay on SK-MEL-5. Moreover, the GI50 was > 57.7 µM (inactive) in the assay on SN12C and > 77.8 µM (inactive) with T47D.

As to `CCN(CC)c1ccc2cc(C(=O)NCc3ccccc3)c(=N)oc2c1`, the GI50 in the assay on 786-0 is > 62.1 µM (inactive); in the assay with ACHN, 5.43 µM (inactive); in the assay with BT-549, 23.5 µM (inactive); in the assay on CCRF-CEM it was 13.3 µM (inactive); with DU-145, 35 µM (inactive); in the assay on HCT-15, 9.27 µM. Besides, the GI50 in the assay with HOP-62 was 59.8 µM (inactive); in the assay on Hs-578T, > 37.6 µM (inactive); with KM12, 8.93 µM (inactive); in the assay on M14 it was 11.1 µM (inactive); in the assay on MCF7, 36.4 µM (inactive); with MOLT-4, 24.9 µM (inactive). The GI50 with NCI-H23 is 31.1 µM (inactive); with NCI-H460, 28.2 µM (inactive); in the assay on NCI/ADR-RES, 0.912 µM (active); in the assay on SF-295 it was 27.5 µM (inactive); in the assay with SK-MEL-2 it was 21.4 µM (inactive); in the assay on SK-MEL-5, 27.6 µM (inactive). Moreover, the figures for the GI50 in the assay with SN12C and with T47D were > 100 µM (inactive) and 4.33 µM (inactive), respectively.

Turning to `CCOC(=O)CSc1nnc2cc(CN3CCCC3)c(-c3ccc(Cl)cc3)nn12`, the GI50 in the assay with 786-0 is 92.3 µM (inactive); in the assay with ACHN, > 100 µM (inactive); in the assay on BT-549 it was > 100 µM (inactive); in the assay with CCRF-CEM it was 48.1 µM (inactive); in the assay on DU-145 it was 71.6 µM (inactive); in the assay on HCT-15, above 100 µM. In addition, the GI50 in the assay on HOP-62 was > 100 µM (inactive); in the assay on Hs-578T, > 100 µM (inactive); with KM12, > 100 µM (inactive); in the assay on M14, > 100 µM (inactive); in the assay on MCF7, 46.9 µM (inactive); in the assay on MOLT-4, 38.5 µM (inactive). For the same compound, the GI50 in the assay on NCI-H23 was > 100 µM (inactive); with NCI-H460, 48.4 µM (inactive); in the assay with NCI/ADR-RES it was > 100 µM (inactive); in the assay on SF-295, > 100 µM (inactive); in the assay on SK-MEL-2 it was > 100 µM (inactive); with SK-MEL-5 it was > 100 µM (inactive). In addition, the GI50 with SN12C was > 100 µM (inactive); with T47D, 57.5 µM (inactive).

`c1cnc2c(c1)ccc1cccnc12`: the GI50 with 786-0 was 3.78 µM (inactive); with ACHN, 2.86 µM (inactive); in the assay with BT-549, 9.79 µM (inactive); in the assay on CCRF-CEM it was 1.87 µM (inactive); with DU-145, 4.13 µM (inactive); with HCT-15 it was 3.12 µM. In addition, the GI50 in the assay with HOP-62 is 5.83 µM (inactive); with Hs-578T, > 36.3 µM (inactive); in the assay on KM12, 4.93 µM (inactive); in the assay on M14, 4.02 µM (inactive); in the assay on MCF7 it was 3.66 µM (inactive); in the assay on MOLT-4, 2.86 µM (inactive). Besides, the GI50 was 5.12 µM (inactive) in the assay with NCI-H23; 2.74 µM (inactive) in the assay on NCI-H460; 2.37 µM (inactive) with NCI/ADR-RES; 3.52 µM (inactive) in the assay on SF-295; > 28.4 µM (inactive) with SK-MEL-2; 2.62 µM (inactive) in the assay on SK-MEL-5. Besides, the GI50 in the assay on SN12C is 3.27 µM (inactive); in the assay with T47D it was 4.92 µM (inactive).

As to `COC(=O)c1cc(C)ccc1/C=C1\Cc2c(C)cc(C)cc2C1=O`, the GI50 with 786-0 is 14 µM (inactive); with ACHN, 60.7 µM (inactive); with BT-549, 36.5 µM (inactive); with CCRF-CEM, > 100 µM (inactive); in the assay with DU-145, > 100 µM (inactive); in the assay with HCT-15, above 100 µM. Moreover, the GI50 in the assay on HOP-62 was 11.9 µM (inactive); with Hs-578T, 14 µM (inactive); in the assay on KM12 it was > 44 µM (inactive); in the assay with M14, 17.3 µM (inactive); in the assay on MCF7, > 100 µM (inactive); in the assay on MOLT-4 it was > 100 µM (inactive). For the same compound, the GI50 with NCI-H23 was 14.5 µM (inactive); with NCI-H460, > 85.7 µM (inactive); with NCI/ADR-RES, 64.3 µM (inactive); in the assay with SF-295 it was 3.61 µM (inactive); with SK-MEL-2 it was 22.8 µM (inactive); in the assay on SK-MEL-5 it was > 100 µM (inactive). Moreover, the GI50 with SN12C was 69 µM (inactive); in the assay on T47D it was > 97.3 µM (inactive).

Take `NCCCC(N)C(=O)O` (stereo not given): the GI50 was > 100 µM (inactive) in the assay with 786-0; > 100 µM (inactive) in the assay with ACHN; > 100 µM (inactive) in the assay with BT-549; > 100 µM (inactive) with CCRF-CEM; > 100 µM (inactive) in the assay with DU-145; above 100 µM in the assay on HCT-15. Moreover, the GI50 in the assay on HOP-62, with Hs-578T, in the assay with KM12, in the assay on M14, in the assay with MCF7 and with MOLT-4 was > 100 µM (inactive) each time. Moreover, the GI50 with NCI-H23, in the assay on NCI-H460, in the assay on NCI/ADR-RES, with SF-295, in the assay on SK-MEL-2 and with SK-MEL-5 was > 100 µM (inactive) throughout. For the same compound, the GI50 with SN12C and in the assay on T47D was > 100 µM (inactive) each time.

For `CC(C(O)c1ccccc1)N(C)/N=N/c1nc2c([nH]1)c(=O)n(C)c(=O)n2C` (stereo not given), the GI50 in the assay on 786-0 is 74.1 µM (inactive); with ACHN it was 36.6 µM (inactive); in the assay with BT-549 it was > 100 µM (inactive); in the assay on CCRF-CEM, 47.2 µM (inactive); in the assay with DU-145, 99.3 µM (inactive); with HCT-15 it was 90.4 µM. Also, the GI50 in the assay on HOP-62 is > 100 µM (inactive); in the assay with Hs-578T it was > 100 µM (inactive); in the assay with KM12, 46.2 µM (inactive); in the assay with M14, > 100 µM (inactive); with MCF7, 26.1 µM (inactive); in the assay on MOLT-4 it was 38.3 µM (inactive). The GI50 with NCI-H23 is 60.8 µM (inactive); with NCI-H460 it was 25.2 µM (inactive); with NCI/ADR-RES it was > 100 µM (inactive); with SF-295 it was > 100 µM (inactive); in the assay on SK-MEL-2 it was > 100 µM (inactive); in the assay with SK-MEL-5, 66.8 µM (inactive). Moreover, the GI50 was 52.6 µM (inactive) with SN12C and 85.5 µM (inactive) in the assay on T47D.

Regarding `CC(=O)OC(C#N)CC(C)(C)/[N+]([O-])=[N+](\[O-])C(C)(C)CC(C#N)OC(C)=O` (stereo not given), the GI50 was 10.6 µM (inactive) with 786-0; 12.1 µM (inactive) with ACHN; 14.8 µM (inactive) in the assay on BT-549; 1.73 µM (inactive) in the assay on CCRF-CEM; 18 µM (inactive) with DU-145; 10.6 µM with HCT-15. For the same compound, the GI50 with HOP-62 was 17.8 µM (inactive); in the assay with Hs-578T, 17.3 µM (inactive); in the assay with KM12, 14.5 µM (inactive); in the assay with M14 it was 14.4 µM (inactive); in the assay with MCF7, 8.83 µM (inactive); in the assay on MOLT-4 it was 3.24 µM (inactive). Besides, the GI50 with NCI-H23 is 17 µM (inactive); in the assay on NCI-H460, 18 µM (inactive); in the assay with NCI/ADR-RES, 22.4 µM (inactive); in the assay with SF-295 it was 38.3 µM (inactive); in the assay with SK-MEL-2, 24.3 µM (inactive); in the assay on SK-MEL-5, 16.1 µM (inactive). The GI50 in the assay with SN12C is 12.9 µM (inactive); in the assay with T47D, 15.5 µM (inactive).

Regarding `[N-]=[N+]=NCC1OC(n2cnc3c(N)ncnc32)C2OC12` (stereo not given), the GI50 with 786-0 is > 100 µM (inactive); with ACHN, > 100 µM (inactive); in the assay on BT-549, > 100 µM (inactive); with CCRF-CEM, > 100 µM (inactive); in the assay with DU-145, > 100 µM (inactive); in the assay on HCT-15, above 100 µM. The GI50 in the assay with HOP-62, in the assay with Hs-578T, with KM12, in the assay on M14, with MCF7 and in the assay on MOLT-4 was > 100 µM (inactive) each time. Besides, the GI50 with NCI-H23, with NCI-H460, with NCI/ADR-RES, in the assay on SF-295, in the assay with SK-MEL-2 and with SK-MEL-5 was > 100 µM (inactive) each time. For the same compound, the GI50 in the assay with SN12C and in the assay on T47D was > 100 µM (inactive) in each case.

With `COc1ccc(/C=C/C(=O)c2ccc(OC(=O)/C=C/c3ccccc3)cc2)cc1`, the GI50 in the assay on 786-0 was 17 µM (inactive); in the assay with ACHN, 34.6 µM (inactive); in the assay on BT-549, 14.9 µM (inactive); in the assay with CCRF-CEM, 5.21 µM (inactive); in the assay on DU-145, 11.9 µM (inactive); in the assay with HCT-15, 15.7 µM. In addition, the GI50 was 61.1 µM (inactive) in the assay on HOP-62; 36 µM (inactive) in the assay on Hs-578T; 8.97 µM (inactive) in the assay on KM12; 59.8 µM (inactive) in the assay with M14; 23.6 µM (inactive) with MCF7; 16.6 µM (inactive) in the assay with MOLT-4. Besides, the GI50 in the assay on NCI-H23 is 21 µM (inactive); with NCI-H460, 19.4 µM (inactive); in the assay with NCI/ADR-RES it was 31.2 µM (inactive); in the assay with SF-295, 25.1 µM (inactive); in the assay on SK-MEL-2 it was 45.1 µM (inactive); with SK-MEL-5 it was 26 µM (inactive). Besides, the GI50 in the assay on SN12C is 26.6 µM (inactive); in the assay with T47D, 23.9 µM (inactive).

These data come from ChEMBL document CHEMBL1201862, “PubChem BioAssay data set” (2004).
